# Measured values from the supplement of paper PMC10307832.
# Compound: COc1cc(-c2nn([C@H]3CC[C@H](N4CCN(C(C)=O)CC4)CC3)c3ncnc(N)c23)ccc1NC(=O)c1cc2ccccc2n1C + NC(=O)Nc1cc(-c2cccc(F)c2)sc1C(=O)N[C@H]1CCCNC1 [AZD7762] (partner 0.2 µM)
# Assay: relative viability (nuclei count vs DMSO), 5 days (fraction); higher = more cells survive
# Conditions: first compound 0.0128 µM
# How it was run: (§1)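 Lung cancer cell lines in 1536-well plates got either a single drug or a fixed anchor-drug dose together with five library-drug doses (not always all listed) in √10 steps, by pin tool, on the day after seeding. Nuclei were counted after 5 days, and relative viability is the treated-to-vehicle ratio of nuclei counts. Values are medians of duplicate plates.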
row,Cell Line,relative viability
1,NCI-H2087,1.31
2,H3255,0.879
3,LOU-NH91,0.813
4,ChaGo-K-1,0.829
5,NCI-H2405,0.707
6,HOP-62,0.74
7,HCC-44,1.13
8,LU99A,0.327
9,BEN,0.532
10,HARA,0.257
11,HCC-78,0.52
12,NCI-H322M,0.496
13,LCLC-97TM1,0.377
14,A-427,0.76
15,NCI-H441,1.21
16,NCI-H1734,0.614
17,NCI-H460,0.618
18,NCI-H2347,0.773
19,201T,0.707
20,NCI-H1915,0.714
21,HCC-827,0.211
22,LXF-289,1.29
23,NCI-H23,0.268
24,NCI-H647,0.503
25,NCI-H1651,0.466
26,EPLC-272H,0.253
27,NCI-H1792,0.646
28,NCI-H1355,0.75
29,NCI-H3122,1.06
30,NCI-H1437,1.14

# Same assay, conditions: first compound 0.04048 µM
row,Cell Line,relative viability
1,H3255,0.87
2,LOU-NH91,0.796
3,ChaGo-K-1,0.779
4,NCI-H2405,0.615
5,HOP-62,0.555
6,HCC-44,1.17
7,LU99A,0.404
8,BEN,0.729
9,HARA,0.432
10,HCC-78,0.851
11,NCI-H322M,0.599
12,LCLC-97TM1,0.165
13,A-427,0.641
14,NCI-H441,1.01
15,NCI-H1734,0.519
16,NCI-H460,0.73
17,NCI-H2347,0.55
18,201T,0.51
19,NCI-H1915,0.665
20,HCC-827,0.212
21,LXF-289,0.964
22,NCI-H23,0.199
23,NCI-H647,0.602
24,NCI-H1651,0.457
25,EPLC-272H,0.207
26,NCI-H1792,0.679
27,NCI-H1355,0.788
28,NCI-H1437,1.15

# Same assay, conditions: first compound 0.128 µM
row,Cell Line,relative viability
1,NCI-H2087,1.18
2,H3255,0.894
3,LOU-NH91,0.732
4,ChaGo-K-1,0.818
5,NCI-H2405,0.573
6,HOP-62,0.661
7,HCC-44,0.981
8,LU99A,0.352
9,BEN,0.591
10,HARA,0.124
11,HCC-78,0.52
12,NCI-H322M,0.536
13,LCLC-97TM1,0.283
14,A-427,0.782
15,NCI-H441,1.12
16,NCI-H1734,0.578
17,NCI-H460,0.603
18,NCI-H2347,0.64
19,201T,0.584
20,NCI-H1915,0.69
21,HCC-827,0.199
22,LXF-289,1.04
23,NCI-H23,0.261
24,NCI-H647,0.403
25,NCI-H1651,0.49
26,EPLC-272H,0.215
27,NCI-H1792,0.632
28,NCI-H1355,0.654
29,NCI-H3122,0.958
30,NCI-H1437,1.04

# Same assay, conditions: first compound 1.28 µM
row,Cell Line,relative viability
1,NCI-H2087,1.08
2,H3255,0.633
3,LOU-NH91,0.658
4,ChaGo-K-1,0.72
5,NCI-H2405,0.349
6,HOP-62,0.566
7,HCC-44,1.19
8,LU99A,0.35
9,BEN,0.671
10,HARA,0.281
11,HCC-78,0.331
12,NCI-H322M,0.444
13,LCLC-97TM1,0.194
14,A-427,0.727
15,NCI-H441,0.717
16,NCI-H1734,0.508
17,NCI-H460,0.579
18,NCI-H2347,0.565
19,201T,0.465
20,NCI-H1915,0.448
21,HCC-827,0.138
22,LXF-289,1.14
23,NCI-H23,0.199
24,NCI-H647,0.367
25,NCI-H1651,0.397
26,EPLC-272H,0.142
27,NCI-H1792,0.517
28,NCI-H1355,0.619
29,NCI-H3122,0.845
30,NCI-H1437,0.96

# Compound: CO[C@@H]1[C@H](N(C)C(=O)c2ccccc2)C[C@H]2O[C@]1(C)n1c3ccccc3c3c4c(c5c6ccccc6n2c5c31)C(=O)NC4 [Midostaurin] + Nc1ncn([C@H]2C[C@H](O)[C@@H](CO)O2)c(=O)n1 [Decitabine] (partner 2 µM)
# Assay: as above
# Conditions: first compound 0.01 µM
# How it was run: as §1
row,Cell Line,relative viability
1,NCI-H2087,0.276
2,H3255,0.6
3,LOU-NH91,0.783
4,ChaGo-K-1,0.488
5,NCI-H2405,0.721
6,HOP-62,0.203
7,HCC-44,0.899
8,LU99A,0.912
9,BEN,0.732
10,HARA,0.584
11,HCC-78,0.651
12,NCI-H322M,0.638
13,LCLC-97TM1,0.215
14,A-427,0.574
15,NCI-H441,0.249
16,NCI-H1734,0.508
17,NCI-H460,0.491
18,NCI-H2347,0.599
19,201T,0.878
20,NCI-H1915,0.264
21,HCC-827,0.303
22,LXF-289,0.394
23,NCI-H23,0.302
24,NCI-H647,0.405
25,NCI-H1651,0.612
26,EPLC-272H,0.35
27,NCI-H1792,0.555
28,NCI-H1355,0.361
29,NCI-H3122,0.394
30,NCI-H1437,0.579

# Same assay, conditions: first compound 0.03162 µM
row,Cell Line,relative viability
1,NCI-H2087,0.323
2,H3255,0.557
3,LOU-NH91,0.781
4,ChaGo-K-1,0.55
5,NCI-H2405,0.8
6,HOP-62,0.25
7,HCC-44,0.972
8,LU99A,0.948
9,BEN,0.712
10,HARA,0.528
11,HCC-78,0.676
12,NCI-H322M,0.673
13,LCLC-97TM1,0.239
14,A-427,0.6
15,NCI-H441,0.237
16,NCI-H1734,0.499
17,NCI-H460,0.526
18,NCI-H2347,0.584
19,201T,0.91
20,NCI-H1915,0.26
21,HCC-827,0.318
22,LXF-289,0.339
23,NCI-H23,0.368
24,NCI-H647,0.433
25,NCI-H1651,0.596
26,EPLC-272H,0.332
27,NCI-H1792,0.515
28,NCI-H1355,0.386
29,NCI-H3122,0.395
30,NCI-H1437,0.607

# Same assay, conditions: first compound 0.1 µM
row,Cell Line,relative viability
1,NCI-H2087,0.357
2,H3255,0.615
3,LOU-NH91,0.835
4,ChaGo-K-1,0.533
5,NCI-H2405,0.774
6,HOP-62,0.246
7,HCC-44,0.989
8,LU99A,0.657
9,BEN,0.685
10,HARA,0.539
11,HCC-78,0.613
12,NCI-H322M,0.651
13,LCLC-97TM1,0.25
14,A-427,0.529
15,NCI-H441,0.221
16,NCI-H1734,0.486
17,NCI-H460,0.53
18,NCI-H2347,0.567
19,201T,0.83
20,NCI-H1915,0.255
21,HCC-827,0.356
22,LXF-289,0.342
23,NCI-H23,0.308
24,NCI-H647,0.346
25,NCI-H1651,0.696
26,EPLC-272H,0.356
27,NCI-H1792,0.529
28,NCI-H1355,0.346
29,NCI-H3122,0.531
30,NCI-H1437,0.561

# Same assay, conditions: first compound 0.3162 µM
row,Cell Line,relative viability
1,NCI-H2087,0.194
2,H3255,0.524
3,LOU-NH91,0.798
4,ChaGo-K-1,0.54
5,NCI-H2405,0.778
6,HOP-62,0.227
7,HCC-44,0.997
8,LU99A,0.594
9,BEN,0.806
10,HARA,0.591
11,HCC-78,0.72
12,NCI-H322M,0.715
13,LCLC-97TM1,0.242
14,A-427,0.547
15,NCI-H441,0.23
16,NCI-H1734,0.521
17,NCI-H460,0.638
18,NCI-H2347,0.611
19,201T,0.867
20,NCI-H1915,0.255
21,HCC-827,0.349
22,LXF-289,0.401
23,NCI-H23,0.249
24,NCI-H647,0.374
25,NCI-H1651,0.649
26,EPLC-272H,0.345
27,NCI-H1792,0.431
28,NCI-H1355,0.348
29,NCI-H3122,0.551
30,NCI-H1437,0.53

# Compound: CO[C@@H]1[C@H](N(C)C(=O)c2ccccc2)C[C@H]2O[C@]1(C)n1c3ccccc3c3c4c(c5c6ccccc6n2c5c31)C(=O)NC4 [Midostaurin] + CC(C)C[C@H](NC(=O)[C@H](Cc1ccccc1)NC(=O)c1cnccn1)B(O)O [Bortezomib] (partner 0.002 µM)
# Assay: as above
# Conditions: first compound 0.01 µM
# How it was run: as §1
row,Cell Line,relative viability
1,NCI-H2087,0.827
2,H3255,0.857
3,LOU-NH91,0.506
4,ChaGo-K-1,0.985
5,NCI-H2405,1.02
6,HOP-62,0.887
7,HCC-44,0.84
8,LU99A,1.08
9,BEN,0.797
10,HARA,1.12
11,HCC-78,0.431
12,NCI-H322M,1.37
13,LCLC-97TM1,0.475
14,A-427,0.961
15,NCI-H441,0.477
16,NCI-H1734,0.868
17,NCI-H460,1.19
18,NCI-H2347,0.842
19,201T,1.08
20,NCI-H1915,0.936
21,HCC-827,0.984
22,LXF-289,0.997
23,NCI-H23,1.03
24,NCI-H647,0.953
25,NCI-H1651,0.955
26,EPLC-272H,0.921
27,NCI-H1792,0.943
28,NCI-H1355,1.13
29,NCI-H3122,0.991
30,NCI-H1437,0.556

# Same assay, conditions: first compound 0.03162 µM
row,Cell Line,relative viability
1,NCI-H2087,0.717
2,H3255,0.832
3,LOU-NH91,0.48
4,ChaGo-K-1,1.28
5,NCI-H2405,0.985
6,HOP-62,0.728
7,HCC-44,0.881
8,LU99A,1.17
9,BEN,0.841
10,HARA,1.03
11,HCC-78,0.45
12,NCI-H322M,1.27
13,A-427,0.939
14,NCI-H441,0.647
15,NCI-H1734,0.886
16,NCI-H460,1.19
17,NCI-H2347,0.95
18,201T,1.04
19,NCI-H1915,1
20,HCC-827,0.951
21,LXF-289,0.97
22,NCI-H23,0.999
23,NCI-H647,1.07
24,NCI-H1651,1.01
25,EPLC-272H,0.927
26,NCI-H1792,0.949
27,NCI-H1355,1.16
28,NCI-H3122,0.968
29,NCI-H1437,0.499
